Results: ChEMBL document CHEMBL4011631, “Trisubstituted Pyridinylimidazoles as Potent Inhibitors of the Clinically Resistant L858R/T790M/C797S EGFR Mutant: Targeting of Both Hydrophobic Regions and the Phosphate Binding Site” (J Med Chem, 2017)

Molecular target: T1, Epidermal growth factor receptor (Homo sapiens, UniProt P00533, L858R)
Assay: not given
Conditions: not given
Target sequence in this assay (P00533 25-1210 L858R limits assumed): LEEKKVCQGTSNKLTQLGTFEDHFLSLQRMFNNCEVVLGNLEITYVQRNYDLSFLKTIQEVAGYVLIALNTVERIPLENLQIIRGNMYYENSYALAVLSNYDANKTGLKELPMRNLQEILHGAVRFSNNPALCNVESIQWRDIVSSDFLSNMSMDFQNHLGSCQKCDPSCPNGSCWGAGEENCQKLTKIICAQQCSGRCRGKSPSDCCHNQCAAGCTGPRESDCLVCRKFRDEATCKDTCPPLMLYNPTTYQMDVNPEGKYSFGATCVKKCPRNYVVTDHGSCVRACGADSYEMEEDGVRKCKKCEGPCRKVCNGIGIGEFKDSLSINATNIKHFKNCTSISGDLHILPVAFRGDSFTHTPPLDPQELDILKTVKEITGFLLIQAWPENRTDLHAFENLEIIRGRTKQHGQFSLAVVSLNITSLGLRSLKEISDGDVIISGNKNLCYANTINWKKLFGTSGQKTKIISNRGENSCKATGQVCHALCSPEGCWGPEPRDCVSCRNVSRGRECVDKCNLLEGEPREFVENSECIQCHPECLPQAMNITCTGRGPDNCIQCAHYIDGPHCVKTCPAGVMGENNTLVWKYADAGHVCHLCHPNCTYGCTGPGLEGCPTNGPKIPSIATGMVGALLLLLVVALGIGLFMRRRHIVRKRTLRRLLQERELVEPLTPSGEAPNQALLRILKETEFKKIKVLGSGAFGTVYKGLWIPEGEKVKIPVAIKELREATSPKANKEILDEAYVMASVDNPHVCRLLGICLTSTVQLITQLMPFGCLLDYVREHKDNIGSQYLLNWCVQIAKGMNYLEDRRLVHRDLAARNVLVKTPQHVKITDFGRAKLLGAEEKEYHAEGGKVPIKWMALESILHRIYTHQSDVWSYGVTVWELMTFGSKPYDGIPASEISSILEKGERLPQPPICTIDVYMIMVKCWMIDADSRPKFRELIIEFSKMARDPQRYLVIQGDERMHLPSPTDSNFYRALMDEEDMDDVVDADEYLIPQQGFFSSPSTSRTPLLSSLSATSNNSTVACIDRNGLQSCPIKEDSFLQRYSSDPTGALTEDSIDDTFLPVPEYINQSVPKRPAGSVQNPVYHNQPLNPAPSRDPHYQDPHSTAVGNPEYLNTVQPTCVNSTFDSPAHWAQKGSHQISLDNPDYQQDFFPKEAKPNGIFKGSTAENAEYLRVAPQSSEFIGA

Row | SMILES | IC50 [nM]
1 | C=CC(=O)Nc1ccc(OC)c(Nc2cc(-c3[nH]c(CCCO)nc3-c3ccc(F)cc3)ccn2)c1 | < 1
2 | CCC(=O)NCCSc1nc(-c2ccc(F)cc2)c(-c2ccnc(Nc3ccccc3)c2)[nH]1 | 3.2
3 | CCC(=O)Nc1ccc(OC)c(Nc2cc(-c3cnc(SC)[nH]3)ccn2)c1 | 360
4 | N#CCCSc1nc(-c2ccc(F)cc2)c(-c2ccnc(Nc3ccccc3)c2)[nH]1 | 40
5 | C=CC(=O)Nc1cccc(Nc2cc(-c3[nH]c(SC)nc3-c3ccc(F)cc3)ccn2)n1 | < 1
6 | C=CC(=O)Nc1ccc(OC)c(Nc2cc(-c3[nH]c(SC)nc3C)ccn2)c1 | 10
7 | CSc1nc(-c2ccc(F)cc2)c(-c2ccnc(Nc3cc(N4CCN(C)CC4)cc([N+](=O)[O-])c3)c2)[nH]1 | < 1
8 | C=CC(=O)NCCCSc1nc(-c2ccc(F)cc2)c(-c2ccnc(Nc3ccccc3)c2)[nH]1 | 22
9 | C=CC(=O)NCCSc1nc(-c2ccccc2)c(-c2ccnc(Nc3ccccc3)c2)[nH]1 | 1.7
10 | C=CC(=O)NCc1cn(Cc2cccc(Nc3cc(-c4[nH]c(SC)nc4-c4ccc(F)cc4)ccn3)c2)nn1 | 46
11 | C=CC(=O)NCc1cccc(Nc2cc(-c3[nH]c(SC)nc3-c3ccc(F)cc3)ccn2)c1 | 4.9

Molecular target: T2, Epidermal growth factor receptor (Homo sapiens, UniProt P00533)
T2 sequence (P00533 whole entry): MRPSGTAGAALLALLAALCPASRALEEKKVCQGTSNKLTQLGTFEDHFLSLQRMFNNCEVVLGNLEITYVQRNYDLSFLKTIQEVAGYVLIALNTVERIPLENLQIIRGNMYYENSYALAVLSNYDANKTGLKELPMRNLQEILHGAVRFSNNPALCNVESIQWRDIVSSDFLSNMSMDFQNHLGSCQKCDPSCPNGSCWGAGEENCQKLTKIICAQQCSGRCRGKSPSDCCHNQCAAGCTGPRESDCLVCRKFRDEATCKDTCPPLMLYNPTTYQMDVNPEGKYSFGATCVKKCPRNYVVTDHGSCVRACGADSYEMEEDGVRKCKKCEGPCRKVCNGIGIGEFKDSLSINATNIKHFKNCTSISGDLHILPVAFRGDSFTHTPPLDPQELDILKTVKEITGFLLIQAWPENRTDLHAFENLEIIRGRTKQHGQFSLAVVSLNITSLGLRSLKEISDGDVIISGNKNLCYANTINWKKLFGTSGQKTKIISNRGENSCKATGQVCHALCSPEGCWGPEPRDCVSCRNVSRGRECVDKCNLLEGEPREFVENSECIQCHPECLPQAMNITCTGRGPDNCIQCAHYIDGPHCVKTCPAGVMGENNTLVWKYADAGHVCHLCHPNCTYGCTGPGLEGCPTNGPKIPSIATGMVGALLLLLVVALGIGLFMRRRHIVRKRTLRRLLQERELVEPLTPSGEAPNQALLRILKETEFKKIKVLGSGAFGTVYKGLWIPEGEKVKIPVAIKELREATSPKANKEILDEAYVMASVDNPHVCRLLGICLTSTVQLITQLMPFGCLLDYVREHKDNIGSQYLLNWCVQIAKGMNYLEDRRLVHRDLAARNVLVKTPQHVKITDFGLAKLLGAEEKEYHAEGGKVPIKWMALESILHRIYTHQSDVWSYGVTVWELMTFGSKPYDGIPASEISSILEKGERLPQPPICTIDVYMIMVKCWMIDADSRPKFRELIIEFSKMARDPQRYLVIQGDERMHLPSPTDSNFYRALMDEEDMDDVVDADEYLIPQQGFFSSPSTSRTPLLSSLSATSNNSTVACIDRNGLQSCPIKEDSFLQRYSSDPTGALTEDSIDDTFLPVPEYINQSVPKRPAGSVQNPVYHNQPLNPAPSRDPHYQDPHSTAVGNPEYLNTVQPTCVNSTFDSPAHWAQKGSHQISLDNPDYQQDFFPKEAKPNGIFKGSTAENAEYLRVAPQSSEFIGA
Assay: not given
Format: ADME
Conditions: not given

Row | SMILES | IC50 [nM]
12 | C=CC(=O)Nc1ccc(OC)c(Nc2cc(-c3[nH]c(CCCO)nc3-c3ccc(F)cc3)ccn2)c1 | < 1
13 | CCC(=O)NCCSc1nc(-c2ccc(F)cc2)c(-c2ccnc(Nc3ccccc3)c2)[nH]1 | 33
14 | CCC(=O)Nc1ccc(OC)c(Nc2cc(-c3cnc(SC)[nH]3)ccn2)c1 | 1770
15 | N#CCCSc1nc(-c2ccc(F)cc2)c(-c2ccnc(Nc3ccccc3)c2)[nH]1 | 109
16 | C=CC(=O)Nc1cccc(Nc2cc(-c3[nH]c(SC)nc3-c3ccc(F)cc3)ccn2)n1 | < 1
17 | C=CC(=O)Nc1ccc(OC)c(Nc2cc(-c3[nH]c(SC)nc3C)ccn2)c1 | 32
18 | CSc1nc(-c2ccc(F)cc2)c(-c2ccnc(Nc3cc(N4CCN(C)CC4)cc([N+](=O)[O-])c3)c2)[nH]1 | 2.1
19 | C=CC(=O)NCCCSc1nc(-c2ccc(F)cc2)c(-c2ccnc(Nc3ccccc3)c2)[nH]1 | 16
20 | C=CC(=O)NCCSc1nc(-c2ccccc2)c(-c2ccnc(Nc3ccccc3)c2)[nH]1 | 12
21 | C=CC(=O)NCc1cn(Cc2cccc(Nc3cc(-c4[nH]c(SC)nc4-c4ccc(F)cc4)ccn3)c2)nn1 | 164
22 | C=CC(=O)NCc1cccc(Nc2cc(-c3[nH]c(SC)nc3-c3ccc(F)cc3)ccn2)c1 | 16

Molecular target: T3, Epidermal growth factor receptor (Homo sapiens, UniProt P00533, L858R/T790M)
Assay: not given
Conditions: not given
Target sequence in this assay (P00533 25-1210 T790M/L858R limits assumed): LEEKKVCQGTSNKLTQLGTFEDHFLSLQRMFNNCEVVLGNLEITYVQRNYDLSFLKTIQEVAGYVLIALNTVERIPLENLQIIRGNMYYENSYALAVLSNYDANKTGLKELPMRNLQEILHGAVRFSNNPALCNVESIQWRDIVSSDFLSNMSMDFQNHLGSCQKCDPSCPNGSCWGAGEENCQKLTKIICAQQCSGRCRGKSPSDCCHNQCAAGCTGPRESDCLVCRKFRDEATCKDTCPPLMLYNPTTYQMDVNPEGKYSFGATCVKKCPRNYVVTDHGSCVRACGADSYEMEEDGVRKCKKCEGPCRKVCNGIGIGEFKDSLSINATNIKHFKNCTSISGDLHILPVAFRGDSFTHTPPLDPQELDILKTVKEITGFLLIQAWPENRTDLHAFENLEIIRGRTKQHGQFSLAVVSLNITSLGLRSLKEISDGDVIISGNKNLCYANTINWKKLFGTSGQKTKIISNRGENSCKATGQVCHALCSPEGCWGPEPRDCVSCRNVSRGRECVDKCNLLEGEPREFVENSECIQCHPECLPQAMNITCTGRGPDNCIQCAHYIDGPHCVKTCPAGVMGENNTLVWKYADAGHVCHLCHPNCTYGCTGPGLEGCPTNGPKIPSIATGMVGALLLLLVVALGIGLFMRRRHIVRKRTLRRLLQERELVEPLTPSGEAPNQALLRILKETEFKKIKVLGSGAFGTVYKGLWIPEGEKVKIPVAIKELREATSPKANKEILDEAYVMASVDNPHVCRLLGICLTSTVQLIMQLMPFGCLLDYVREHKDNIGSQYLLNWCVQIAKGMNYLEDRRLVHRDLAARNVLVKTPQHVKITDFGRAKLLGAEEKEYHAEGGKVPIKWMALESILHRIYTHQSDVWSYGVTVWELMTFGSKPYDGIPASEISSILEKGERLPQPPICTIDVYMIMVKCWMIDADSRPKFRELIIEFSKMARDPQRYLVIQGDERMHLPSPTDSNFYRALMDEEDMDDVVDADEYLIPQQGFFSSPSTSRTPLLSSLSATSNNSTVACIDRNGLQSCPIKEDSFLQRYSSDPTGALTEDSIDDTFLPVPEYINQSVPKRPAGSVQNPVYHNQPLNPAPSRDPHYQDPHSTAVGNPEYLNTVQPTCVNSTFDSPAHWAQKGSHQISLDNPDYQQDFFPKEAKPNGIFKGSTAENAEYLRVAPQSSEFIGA

Row | SMILES | IC50 [nM]
23 | C=CC(=O)Nc1ccc(OC)c(Nc2cc(-c3[nH]c(CCCO)nc3-c3ccc(F)cc3)ccn2)c1 | < 1
24 | CCC(=O)NCCSc1nc(-c2ccc(F)cc2)c(-c2ccnc(Nc3ccccc3)c2)[nH]1 | 52
25 | CCC(=O)Nc1ccc(OC)c(Nc2cc(-c3cnc(SC)[nH]3)ccn2)c1 | 3510
26 | N#CCCSc1nc(-c2ccc(F)cc2)c(-c2ccnc(Nc3ccccc3)c2)[nH]1 | 746
27 | C=CC(=O)Nc1cccc(Nc2cc(-c3[nH]c(SC)nc3-c3ccc(F)cc3)ccn2)n1 | 3.1
28 | C=CC(=O)Nc1ccc(OC)c(Nc2cc(-c3[nH]c(SC)nc3C)ccn2)c1 | 33
29 | CSc1nc(-c2ccc(F)cc2)c(-c2ccnc(Nc3cc(N4CCN(C)CC4)cc([N+](=O)[O-])c3)c2)[nH]1 | 12
30 | C=CC(=O)NCCCSc1nc(-c2ccc(F)cc2)c(-c2ccnc(Nc3ccccc3)c2)[nH]1 | 321
31 | C=CC(=O)NCCSc1nc(-c2ccccc2)c(-c2ccnc(Nc3ccccc3)c2)[nH]1 | 29
32 | C=CC(=O)NCc1cn(Cc2cccc(Nc3cc(-c4[nH]c(SC)nc4-c4ccc(F)cc4)ccn3)c2)nn1 | 597
33 | C=CC(=O)NCc1cccc(Nc2cc(-c3[nH]c(SC)nc3-c3ccc(F)cc3)ccn2)c1 | 89

System: A-431
Assay: cells
Format: ADME, cell-based
Conditions: Homo sapiens, A-431, 96 h
Description: Antiproliferative activity against human A431 cells harboring wild type EGFR assessed as growth inhibition after 96 hrs by CellTiter-Glo assay

Row | SMILES | EC50 [nM]
34 | C=CC(=O)Nc1ccc(OC)c(Nc2cc(-c3[nH]c(CCCO)nc3-c3ccc(F)cc3)ccn2)c1 | 4000
35 | CCC(=O)NCCSc1nc(-c2ccc(F)cc2)c(-c2ccnc(Nc3ccccc3)c2)[nH]1 | 16000
36 | CCC(=O)Nc1ccc(OC)c(Nc2cc(-c3cnc(SC)[nH]3)ccn2)c1 | 13000
37 | N#CCCSc1nc(-c2ccc(F)cc2)c(-c2ccnc(Nc3ccccc3)c2)[nH]1 | 17000
38 | C=CC(=O)Nc1cccc(Nc2cc(-c3[nH]c(SC)nc3-c3ccc(F)cc3)ccn2)n1 | 1700
39 | C=CC(=O)Nc1ccc(OC)c(Nc2cc(-c3[nH]c(SC)nc3C)ccn2)c1 | 9700
40 | CSc1nc(-c2ccc(F)cc2)c(-c2ccnc(Nc3cc(N4CCN(C)CC4)cc([N+](=O)[O-])c3)c2)[nH]1 | 7800
41 | C=CC(=O)NCCCSc1nc(-c2ccc(F)cc2)c(-c2ccnc(Nc3ccccc3)c2)[nH]1 | 1400
42 | C=CC(=O)NCCSc1nc(-c2ccccc2)c(-c2ccnc(Nc3ccccc3)c2)[nH]1 | 11000
43 | C=CC(=O)NCc1cn(Cc2cccc(Nc3cc(-c4[nH]c(SC)nc4-c4ccc(F)cc4)ccn3)c2)nn1 | 24000
44 | C=CC(=O)NCc1cccc(Nc2cc(-c3[nH]c(SC)nc3-c3ccc(F)cc3)ccn2)c1 | 14000

System: NCI-H1975
Assay: cells
Format: functional, cell-based
Conditions: Homo sapiens, NCI-H1975, 96 h

Row | SMILES | EC50 [nM]
45 | C=CC(=O)Nc1ccc(OC)c(Nc2cc(-c3[nH]c(CCCO)nc3-c3ccc(F)cc3)ccn2)c1 | 400
46 | CCC(=O)NCCSc1nc(-c2ccc(F)cc2)c(-c2ccnc(Nc3ccccc3)c2)[nH]1 | 9700
47 | CCC(=O)Nc1ccc(OC)c(Nc2cc(-c3cnc(SC)[nH]3)ccn2)c1 | > 30000
48 | N#CCCSc1nc(-c2ccc(F)cc2)c(-c2ccnc(Nc3ccccc3)c2)[nH]1 | 16000
49 | C=CC(=O)Nc1cccc(Nc2cc(-c3[nH]c(SC)nc3-c3ccc(F)cc3)ccn2)n1 | 1500
50 | C=CC(=O)Nc1ccc(OC)c(Nc2cc(-c3[nH]c(SC)nc3C)ccn2)c1 | 4100
51 | CSc1nc(-c2ccc(F)cc2)c(-c2ccnc(Nc3cc(N4CCN(C)CC4)cc([N+](=O)[O-])c3)c2)[nH]1 | 13000
52 | C=CC(=O)NCCCSc1nc(-c2ccc(F)cc2)c(-c2ccnc(Nc3ccccc3)c2)[nH]1 | 1300
53 | C=CC(=O)NCCSc1nc(-c2ccccc2)c(-c2ccnc(Nc3ccccc3)c2)[nH]1 | 3200
54 | C=CC(=O)NCc1cn(Cc2cccc(Nc3cc(-c4[nH]c(SC)nc4-c4ccc(F)cc4)ccn3)c2)nn1 | 23000
55 | C=CC(=O)NCc1cccc(Nc2cc(-c3[nH]c(SC)nc3-c3ccc(F)cc3)ccn2)c1 | 3400

Molecular target: Epidermal growth factor receptor (Homo sapiens, UniProt P00533, C797S/L858R/T790M)
Assay: Inhibition of human EGFR T790M/C797S/L858R triple mutant preincubated for 20 mins followed by [33P]ATP addition measured after 2 hrs
Conditions: not given

Row | SMILES | IC50 [nM]
56 | C=CC(=O)Nc1ccc(OC)c(Nc2cc(-c3[nH]c(CCCO)nc3-c3ccc(F)cc3)ccn2)c1 | 8

System: not listed separately
Assay: Drug degradation in human liver microsomes at 100 uM preincubated for 5 mins with NADPH-regenerating system followed by liver microsomes addition measured after 240 mins by LC-MS analysis
Format: ADME, microsome
Conditions: read-out: Drug degradation

Row | SMILES | metabolised at 4 h, 100 µM [%]
57 | C=CC(=O)Nc1ccc(OC)c(Nc2cc(-c3[nH]c(CCCO)nc3-c3ccc(F)cc3)ccn2)c1 | 9

Molecular target: T1, Epidermal growth factor receptor
Assay: not given
Conditions: not given
Remark: another data set of the same source
Target sequence in this assay (P00533 whole entry L858R): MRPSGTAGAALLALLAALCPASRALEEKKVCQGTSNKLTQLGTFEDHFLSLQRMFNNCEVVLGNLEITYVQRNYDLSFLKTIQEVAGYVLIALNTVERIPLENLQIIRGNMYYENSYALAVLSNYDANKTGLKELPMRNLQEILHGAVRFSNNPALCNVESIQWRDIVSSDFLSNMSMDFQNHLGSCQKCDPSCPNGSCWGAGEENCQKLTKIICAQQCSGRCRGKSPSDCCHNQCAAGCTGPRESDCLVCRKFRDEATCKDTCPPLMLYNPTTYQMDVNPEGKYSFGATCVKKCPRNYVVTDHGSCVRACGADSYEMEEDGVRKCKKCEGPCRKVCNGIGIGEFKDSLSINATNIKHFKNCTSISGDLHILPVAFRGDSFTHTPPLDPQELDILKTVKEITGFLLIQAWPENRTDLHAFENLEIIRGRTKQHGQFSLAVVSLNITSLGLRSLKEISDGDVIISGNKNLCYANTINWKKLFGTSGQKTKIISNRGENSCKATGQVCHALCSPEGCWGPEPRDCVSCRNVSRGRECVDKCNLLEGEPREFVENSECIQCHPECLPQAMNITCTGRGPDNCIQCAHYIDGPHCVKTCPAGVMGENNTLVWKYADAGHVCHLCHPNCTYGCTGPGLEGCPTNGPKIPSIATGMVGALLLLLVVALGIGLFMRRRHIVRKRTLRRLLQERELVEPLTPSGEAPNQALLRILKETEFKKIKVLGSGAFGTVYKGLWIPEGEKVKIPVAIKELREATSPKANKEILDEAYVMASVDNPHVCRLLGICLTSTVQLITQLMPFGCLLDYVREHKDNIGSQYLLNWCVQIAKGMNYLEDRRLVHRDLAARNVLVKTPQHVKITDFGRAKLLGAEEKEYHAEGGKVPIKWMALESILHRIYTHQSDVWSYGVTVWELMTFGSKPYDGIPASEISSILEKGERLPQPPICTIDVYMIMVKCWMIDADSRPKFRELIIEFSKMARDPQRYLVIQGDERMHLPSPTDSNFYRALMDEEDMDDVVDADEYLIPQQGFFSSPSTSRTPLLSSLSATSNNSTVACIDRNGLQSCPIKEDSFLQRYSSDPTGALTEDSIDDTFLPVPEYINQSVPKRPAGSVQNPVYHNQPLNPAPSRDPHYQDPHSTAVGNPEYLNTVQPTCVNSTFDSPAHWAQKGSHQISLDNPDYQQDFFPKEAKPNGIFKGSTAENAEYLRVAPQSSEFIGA

Row | SMILES | Ki [nM]
58 | C=CC(=O)Nc1ccc(OC)c(Nc2cc(-c3[nH]c(CCCO)nc3-c3ccc(F)cc3)ccn2)c1 | 0.03

Molecular target: T3, Epidermal growth factor receptor
Assay: not given
Conditions: not given
Remark: another data set of the same source

Row | SMILES | Ki [nM]
59 | C=CC(=O)Nc1ccc(OC)c(Nc2cc(-c3[nH]c(CCCO)nc3-c3ccc(F)cc3)ccn2)c1 | 0.1

Molecular target: T2, Epidermal growth factor receptor
Assay: not given
Conditions: read-out: Ratio

Row | SMILES | kinact/KI [M⁻¹ s⁻¹]
60 | C=CC(=O)Nc1ccc(OC)c(Nc2cc(-c3[nH]c(CCCO)nc3-c3ccc(F)cc3)ccn2)c1 | 1.5e+07

Molecular target: T2, Epidermal growth factor receptor
Assay: not given
Conditions: not given
Remark: another data set of the same source

Row | SMILES | Ki [nM]
61 | C=CC(=O)Nc1ccc(OC)c(Nc2cc(-c3[nH]c(CCCO)nc3-c3ccc(F)cc3)ccn2)c1 | 0.07

Same assay, conditions: human

Row | SMILES | kinact [s⁻¹]
62 | C=CC(=O)Nc1ccc(OC)c(Nc2cc(-c3[nH]c(CCCO)nc3-c3ccc(F)cc3)ccn2)c1 | 0.00267
